From patent US8829193B2, “PIM kinase inhibitors and methods of their use” (Novartis AG, priority 2008, dated 2014)
pEC50, pIC50: −log10 of the molar value.

How the values were obtained:
[1] = test system: KMS11 (human myeloma cell line); test: Cell Proliferation Assay; type: cell-based; conditions: KMS-11, 72 h, KMS11 cells, 3 days, Cell Titer-Glow
Experimental: KMS11 (human myeloma cell line), were cultured in IMDM supplemented with 10% FBS, sodium pyruvate and antibiotics. Cells were plated in the same medium at a density of 2000 cells per well into 96 well tissue culture plates, with outside wells vacant, on the day of assay. MM1.s (human myeloma cell line), were cultured in RPMI1640 supplemented with 10% FBS, sodium pyruvate and antibiotics. Cells were plated in the same medium at a density of 5000 cells per well into 96 well tissue culture plates, with outside wells vacant, on the day of assay.
Test compounds supplied in DMSO were diluted into DMSO at 500 times the desired final concentrations before dilution into culture media to 2 times final concentrations. Equal volumes of 2× compounds were added to the cells in 96 well plates and incubated at 37° C. for 3 days.
After 3 days plates were equilibrated to room temperature and equal volume of Cell Titer-Glow Reagent (Promega) was added to the culture wells. The plates were agitated briefly and luminescent signal was measured with luminometer.
Using the procedures for Cell Proliferation Assay described above, the EC50 concentration of compounds of the previous examples were determined in KMS11 cells as shown in the following table.

Pim1 kinase = Pim1 kinase (Homo sapiens (Human), UniProt P11309); test: Pim1 ATP depletion assay; type: biochemical; conditions: 20 μM ATP, 40 μM BAD peptide, 2.5 nM PIM1
Experimental: (§1) The activity of PIM1 is measured using a luciferase-luciferin based ATP detection reagent to quantify ATP depletion resulting from kinase-catalyzed phosphoryl transfer to a peptide substrate. Compounds to be tested are dissolved in 100% DMSO and directly distributed into white 384-well plates at 0.5 μl per well. […] After 15 minutes, 10 μl of 40 μM ATP in assay buffer is added. Final assay concentrations are 2.5 nM PIM1, 20 μM ATP, 40 μM BAD peptide and 2.5% DMSO. The reaction is performed until approximately 50% of the ATP is depleted, then stopped with the addition of 20 μl KinaseGlo Plus (Promega Corporation) solution. The stopped reaction is incubated for 10 minutes and the remaining ATP detected via luminescence on the Victor2 (Perkin Elmer).

Pim2 kinase = Pim2 kinase (Homo sapiens (Human), UniProt Q9P1W9); test: Pim2 ATP depletion assay; type: biochemical; conditions: 4 μM ATP, 10 μM BAD peptide, 5 nM PIM2
Experimental: as §1, with “of PIM2” for “of PIM1”, “0.5 piper” for “0.5 μl per”, “of 8” for “of 40”, “are 5” for “are 2.5”, “nM PIM2, 4” for “nM PIM1, 20”, “ATP, 10” for “ATP, 40”

Pim3 kinase = Pim3 kinase (Homo sapiens (Human), UniProt Q86V86); test: Pim3 ATP depletion assay; type: biochemical; conditions: 40 μM ATP, 100 μM BAD peptide
Experimental: The activity of PIM3 is measured using a luciferase-luciferin based ATP detection reagent to quantify ATP depletion resulting from kinase-catalyzed phosphoryl transfer to a peptide substrate. Compounds to be tested are dissolved in 100% DMSO and directly distributed into white 384-well plates at 0.5 piper well. […] After 15 minutes, 10 μl of 80 μM ATP in assay buffer is added. Final assay concentrations are 5 nM PIM1, 40 μM ATP, 100 μM BAD peptide and 2.5% DMSO. The reaction is performed until approximately 50% of the ATP is depleted, then stopped by the addition of 20 μl KinaseGlo Plus (Promega Corporation) solution. The stopped reaction is incubated for 10 minutes and the remaining ATP detected via luminescence on the Victor2 (Perkin Elmer).

Pim2 kinase, sequence (Q9P1W9 whole entry): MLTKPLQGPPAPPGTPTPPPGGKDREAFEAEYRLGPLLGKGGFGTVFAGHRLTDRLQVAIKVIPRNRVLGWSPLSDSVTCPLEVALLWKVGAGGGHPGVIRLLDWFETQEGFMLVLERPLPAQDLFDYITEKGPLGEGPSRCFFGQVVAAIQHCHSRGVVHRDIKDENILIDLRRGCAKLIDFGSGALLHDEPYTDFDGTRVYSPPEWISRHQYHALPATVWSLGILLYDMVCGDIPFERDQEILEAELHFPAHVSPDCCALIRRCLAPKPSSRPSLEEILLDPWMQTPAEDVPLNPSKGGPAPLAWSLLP
Pim1 kinase, sequence (P11309 whole entry): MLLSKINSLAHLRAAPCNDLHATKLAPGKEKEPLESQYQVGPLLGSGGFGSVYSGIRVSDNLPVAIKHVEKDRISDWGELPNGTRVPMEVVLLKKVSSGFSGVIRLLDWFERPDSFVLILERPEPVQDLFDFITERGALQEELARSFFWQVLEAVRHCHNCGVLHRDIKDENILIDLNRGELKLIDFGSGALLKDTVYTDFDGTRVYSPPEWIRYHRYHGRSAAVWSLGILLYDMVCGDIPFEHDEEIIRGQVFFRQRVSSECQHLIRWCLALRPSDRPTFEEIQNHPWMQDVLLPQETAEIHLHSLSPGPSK

pEC50 [1] | pIC50 (Pim1 kinase) | pIC50 (Pim2 kinase) | pIC50 (Pim3 kinase) | Structure (SMILES)
5.72 | 9.00 | 8.40 | 8.52 | Nc1sc(-c2c(F)cccc2F)nc1C(=O)Nc1cnccc1[C@@H]1CC[C@H](O)[C@H](N)C1 (stereo in doubt) [Example 38, 5-amino-N-(4-(3-amino-4-hydroxycyclohexyl)pyridin-3-yl)-2-(2,6-difluorophenyl)thiazole-4-carboxamide]
5.93 | – | – | – | N[C@H]1CCCN(c2ccncc2NC(=O)c2csc(-c3c(F)cccc3F)n2)C1 [Example 1, (S)-N-(4-(3-aminopiperidin-1-yl)pyridin-3-yl)-2-(2,6-difluorophenyl)thiazole-4-carboxamide]
5.80 | 8.70 | 7.96 | 8.40 | N[C@@H]1CN(c2ccncc2NC(=O)c2csc(-c3c(F)cccc3F)n2)CC[C@H]1O [Example 2, N-(4-((3R,4R)-3-amino-4-hydroxypiperidin-1-yl)pyridin-3-yl)-2-(2,6-difluorophenyl)thiazole-4-carboxamide]
6.39 | 9.00 | 8.52 | 9.00 | N[C@@H]1CN(c2ccncc2NC(=O)c2csc(-c3c(F)cccc3F)n2)CC[C@@H]1O [Example 6, N-(4-((3R,4S)-3-amino-4-hydroxypiperidin-1-yl)pyridin-3-yl)-2-(2,6-difluorophenyl)thiazole-4-carboxamide]
5.33 | 7.68 | 7.34 | 7.46 | CO[C@@H]1C[C@H](N)CN(c2ccncc2NC(=O)c2csc(-c3c(F)cccc3F)n2)C1 [Example 8, N-(4-((3S,5R)-3-amino-5-methoxypiperidin-1-yl)pyridin-3-yl)-2-(2,6-difluorophenyl)thiazole-4-carboxamide]
5.21 | 8.40 | 7.26 | 8.10 | N[C@H]1C[C@@H](F)CN(c2ccncc2NC(=O)c2csc(-c3c(F)cccc3F)n2)C1 [Example 11, N-(4-((3S,5R)-3-amino-5-fluoropiperidin-1-yl)pyridin-3-yl)-2-(2,6-difluorophenyl)thiazole-4-carboxamide]
6.08 | – | – | – | CC1CC(N)CN(c2ccncc2NC(=O)c2csc(-c3c(F)cccc3F)n2)C1 (centres unmarked) [Example 14, N-(4-(3-amino-5-methylpiperidin-1-yl)pyridin-3-yl)-2-(2,6-difluorophenyl)thiazole-4-carboxamide]
6.51 | 9.00 | 8.52 | 8.40 | NC1CC(C(F)(F)F)CN(c2ccncc2NC(=O)c2csc(-c3c(F)cccc3F)n2)C1 (centres unmarked) [Example 15, N-(4-(3-amino-5-(trifluoromethyl)piperidin-1-yl)pyridin-3-yl)-2-(2,6-difluorophenyl)thiazole-4-carboxamide]
5.62 | 9.00 | 8.52 | 8.40 | NC1CC(CF)CN(c2ccncc2NC(=O)c2csc(-c3c(F)cccc3F)n2)C1 (centres unmarked) [Example 16, N-(4-(3-amino-5-(fluoromethyl)piperidin-1-yl)pyridin-3-yl)-2-(2,6-difluorophenyl)thiazole-4-carboxamide]
6.40 | – | – | – | C[C@@H]1C[C@H](N)CN(c2ccncc2NC(=O)c2csc(-c3c(F)cccc3F)n2)C1 [Example 28, N-(4-((3S,5R)-3-amino-5-methylpiperidin-1-yl)pyridin-3-yl)-2-(2,6-difluoropheenyl)thiazole-4-carboxamide]
7.40 | – | – | – | Nc1sc(-c2c(F)cccc2F)nc1C(=O)Nc1cnccc1N1CCC[C@H](N)C1 [Example 29, (S)-5-amino-N-(4-(3-aminopiperidin-1-yl)pyridin-3-yl)-2-(2,6-difluorophenyl)thiazole-4-carboxamide]
6.37 | 9.00 | – | – | Nc1sc(-c2c(F)cccc2F)nc1C(=O)Nc1cnccc1[C@@H]1CCC[C@H](N)C1 [Example 33, 5-amino-N-(4-((1R,3S)-3-aminocyclohexyl)pyridin-3-yl)-2-(2,6-difluorophenyl)thiazole-4-carboxamide]
5.30 | – | – | – | N[C@H]1CCC[C@@H](c2ccncc2NC(=O)c2csc(-c3c(F)cccc3F)n2)C1 [Example 34, N-(4-((1R,3S)-3-aminocyclohexyl)pyridin-3-yl)-2-(2,6-difluorophenyl)thiazole-4-carboxamide]
– | 8.05 | 6.90 | 8.05 | C[C@@H]1CN(c2ccncc2NC(=O)c2csc(-c3c(F)cccc3F)n2)C[C@@H](N)[C@H]1O [Example 35, N-(4-((3R,4S,5R)-3-amino-4-hydroxy-5-methylpiperidin-1-yl)pyridin-3-yl)-2-(2,6-difluorophenyl)thiazole-4-carboxamide]
– | 7.39 | 7.01 | 6.96 | C[C@@H]1C[C@H](N)C[C@H](c2ccncc2NC(=O)c2csc(C3CCCCC3)n2)C1 [Example 40, N-(4-((1R,3S,5S)-3-amino-5-methylcyclohexyl)pyridin-3-yl)-2-cyclohexylthiazole-4-carboxamide]
– | 6.84 | 6.60 | 6.67 | C[C@H]1C[C@@H](c2ccncc2NC(=O)c2csc(C3CCCCC3)n2)C[C@@H](N)[C@@H]1O [Example 42, N-(4-((1R,3R,4R,5S)-3-amino-4-hydroxy-5-methylcyclohexyl)pyridin-3-yl)-2-cyclohexylthiazole-4-carboxamide]
– | 8.30 | 7.34 | 7.82 | C[C@H]1C[C@@H](c2ccncc2NC(=O)c2csc(-c3c(F)cccc3F)n2)C[C@@H](N)[C@H]1O [Example 43, N-(4-((1R,3R,4S,5S)-3-amino-4-hydroxy-5-methylcyclohexyl)pyridin-3-yl)-2-(2,6-difluorophenyl)thiazole-4-carboxamide (and enantiomer)]
6.04 | 9.00 | – | 8.52 | C[C@@H]1C[C@H](N)C[C@H](c2ccncc2NC(=O)c2csc(-c3c(F)cccc3F)n2)C1 [Example 45, N-(4-((1R,3S,5S)-3-amino-5-methylcyclohexyl)pyridin-3-yl)-2-(2,6-difluorophenyl)thhiazole-4-carboxamide]
– | 9.00 | 7.80 | 8.52 | CC1(C)C[C@H](N)C[C@H](c2ccncc2NC(=O)c2csc(-c3c(F)cccc3F)n2)C1 [Example 46, N-(4-((1R,5R)-5-amino-3,3-dimethylcyclohexyl)pyridin-3-yl)-2-(2,6-difluorophenyl)thiazole-4-carboxamide]
– | 8.70 | 7.75 | 8.64 | N[C@H]1CCCN(c2ccncc2NC(=O)c2csc(-c3ccccc3)n2)C1 [Example 48, (S)-N-(4-(3-aminopiperidin-1-yl)pyridin-3-yl)-2-phenylthiazole-4-carboxamide]
– | 8.72 | 8.00 | 8.38 | N[C@H]1CCCN(c2ccncc2NC(=O)c2csc(-c3ccccc3F)n2)C1 [Example 49, (S)-N-(4-(3-aminopiperidin-1-yl)pyridin-3-yl)-2-(2-fluorophenyl)thiazole-4-carboxamide]
– | 8.49 | 7.08 | 8.08 | CC(C)NC(=O)c1ccc(F)c(-c2nc(C(=O)Nc3cnccc3N3CCC[C@H](N)C3)cs2)c1 [Example 50, (S)-N-(4-(3-aminopiperidin-1-yl)pyridin-3-yl)-2-(2-fluoro-5-(isopropylcarbamoyl)phenyl)thiazole-4-carboxamide]
– | 9.00 | 7.70 | 8.52 | CC(C)Oc1ccc(F)c(-c2nc(C(=O)Nc3cnccc3[C@@H]3C[C@H](C)C[C@H](N)C3)cs2)c1F [Example 53]
